This is an account of results in US5321041A, “Diphenylpyrrolylfuran derivatives” (Nihon Iyakuhin Kogyo Co., Ltd., priority 1992, dated 1994).

The test system of data set [1] is lipid peroxidation (crude homogenate prepared from brain tissues of Wistar rats). Description: Inhibitory activity on lipid peroxidation (anti-oxidation activity). Particulars: rat brain homogenate, 37° C., 30 minutes; malondialdehyde, 532 nm. Format: biochemical. The protocol: EXPERIMENT 1: INHIBITORY ACTIVITY ON LIPID PEROXIDATION (ANTI-OXIDATION ACTIVITY)
The captioned activity was evaluated according to the method described by Kakihana et al., Nihon Yakurigaku Zasshi (Folia Pharmacologica Japonica), 80, p. 225, 1982. To a 1 ml of a crude homogenate prepared from brain tissues of Wistar rats, 10 μl of a solution of test drug in dimethyl sulfoxide was added, and after pre-incubation under ice-cooling for 10 minutes, the mixture was subjected to a reaction at 37° C. for 30 minutes. The reaction was stopped by adding 200 μl of 35% perchloric acid to the mixture and then the mixture was centrifuged. To a 1 ml of the supernatant obtained, 0.5 ml of 0.5% thiobarbituric acid was added and the mixture was heated under a boiling water bath for 15 minutes. The mixture was cooled to room temperature and absorbance of the mixture at 532 nm was measured. The inhibitory rate was obtained using the amount of malondialdehyde generated by the solvent-treated control, which equals to 100%, and 50% median inhibitory concentration (IC50) was calculated according to the probit method as indexes of anti-oxidation activity.

Data set [2] concerns paw edema induced by carageenin. Description: Inhibitory activity on paw edema induced by carageenin. Format: in vivo, Wistar rats. Particulars: rat, oral, 10 mg/kg, 3 hours after carageenin. The method, then:
EXPERIMENT 4: INHIBITORY ACTIVITY ON PAW EDEMA INDUCED BY CARAGEENIN
Wistar rats (body weight: 110-130 g) starved overnight were orally administered with a test drug suspended in 0.5% CMC-Na, and after one hour, 0.1 ml of 1% carageenin solution (picnin-A, Zushi Kagaku) was subcutaneously injected into the right hind leg paw of each rat. Three hours later, the volume of the paw was determined by means of a plethysmometer (Model 7150, Ugo Basile Co.,Ltd.) and the rate of edema was evaluated in comparison with the volume of the paw before the carageenin injection as 100%. Inhibitory rate of each drug-treated group against edema formation was calculated in comparison with the solvent-treated control.

For the next data set, the target named is T1, cyclooxygenase (Ovis aries, UniProt P05979).
T1 construct: Sheep seminal vesicle microsome fraction (Funakoshi) was used as an enzyme sample; purchased Funakoshi; host or cells: sheep seminal vesicle microsome fraction
T1 sequence (P05979 25-600): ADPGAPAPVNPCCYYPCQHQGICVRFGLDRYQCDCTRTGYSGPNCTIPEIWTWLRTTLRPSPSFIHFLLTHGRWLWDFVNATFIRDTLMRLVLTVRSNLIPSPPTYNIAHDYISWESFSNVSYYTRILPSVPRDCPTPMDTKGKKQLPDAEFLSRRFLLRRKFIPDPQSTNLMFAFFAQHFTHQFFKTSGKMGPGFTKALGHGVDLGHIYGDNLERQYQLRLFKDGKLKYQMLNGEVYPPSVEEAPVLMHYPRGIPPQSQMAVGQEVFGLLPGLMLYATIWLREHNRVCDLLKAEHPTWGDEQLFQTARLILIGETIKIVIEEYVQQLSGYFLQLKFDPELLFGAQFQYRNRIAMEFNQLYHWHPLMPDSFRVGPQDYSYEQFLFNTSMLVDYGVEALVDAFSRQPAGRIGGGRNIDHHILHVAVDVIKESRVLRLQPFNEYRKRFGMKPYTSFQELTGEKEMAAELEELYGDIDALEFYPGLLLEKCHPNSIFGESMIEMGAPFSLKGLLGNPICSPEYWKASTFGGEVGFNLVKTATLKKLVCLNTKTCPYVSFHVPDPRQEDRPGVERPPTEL
Description: Inhibitory activity on cyclooxygenase. Particulars: PGE2 generation, sheep seminal vesicle microsome, 16 μM 14C-arachidonic acid, pH 8.3. Format: biochemical. The method, then: EXPERIMENT 3: INHIBITORY ACTIVITY ON CYCLOOXYGENASE
Sheep seminal vesicle microsome fraction (Funakoshi) was used as an enzyme sample. A solution of a test drug was mixed with a reaction solution (3 μM epinephrine, 3 mM glutathione, and the enzyme fraction in 100 mM Tris-HCI buffer, pH 8.3). The mixture was pre-incubated at 37° C. for 5 minutes, and then 16 μ M^14 C-arachidonic acid was added to the mixture, which was allowed to react for 3 minutes. After the completion of the reaction, the product was immediately extracted, dissolved in chloroform/methanol (2:1) and developed by thin-layer chromatography. Radioactivity of the prostaglandin E2 (PGE2) fraction was measured using a liquid scintillation counter. Inhibitory rate of each drug-treated group against PGE2 generation was obtained in comparison with the solvent-treated control, and IC50 was calculated according to the probit method.

The next data set addresses T2, 5-lipoxygenase (Cavia porcellus, UniProt A0A286X958).
T2 construct: crude enzyme fraction prepared from peritoneal exudated cells of guinea pigs; endogenous in cells; host or cells: guinea pig peritoneal exudate cells (induced by intraperitoneal casein), crude enzyme fraction
T2 sequence (A0A286X958 1-674): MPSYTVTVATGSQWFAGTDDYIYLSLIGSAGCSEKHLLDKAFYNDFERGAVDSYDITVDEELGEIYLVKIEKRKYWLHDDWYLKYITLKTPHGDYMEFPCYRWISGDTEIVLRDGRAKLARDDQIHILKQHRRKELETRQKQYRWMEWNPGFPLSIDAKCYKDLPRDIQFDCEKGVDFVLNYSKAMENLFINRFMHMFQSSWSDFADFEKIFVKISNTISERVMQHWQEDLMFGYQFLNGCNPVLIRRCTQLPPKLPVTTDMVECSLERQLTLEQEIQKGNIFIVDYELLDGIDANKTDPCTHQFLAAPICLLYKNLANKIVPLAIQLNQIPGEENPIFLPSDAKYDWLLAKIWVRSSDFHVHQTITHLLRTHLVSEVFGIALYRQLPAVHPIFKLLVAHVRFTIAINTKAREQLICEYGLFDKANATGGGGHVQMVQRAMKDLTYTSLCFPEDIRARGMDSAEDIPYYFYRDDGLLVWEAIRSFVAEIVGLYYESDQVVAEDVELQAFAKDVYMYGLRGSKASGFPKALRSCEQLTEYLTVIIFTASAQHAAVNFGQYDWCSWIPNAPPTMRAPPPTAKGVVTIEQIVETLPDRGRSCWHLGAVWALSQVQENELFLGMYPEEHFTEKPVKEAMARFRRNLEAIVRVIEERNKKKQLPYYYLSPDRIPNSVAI
In words: Inhibitory activity on 5-lipoxygenase. Format: biochemical, guinea pigs. The settings on record: 5-HETE generation, 20 μM 14C-arachidonic acid, pH 7.4, 37° C., 10 minutes. The method, then:
EXPERIMENT 2: INHIBITORY ACTIVITY ON 5-LIPOXYGENASE
5-Lipoxygenase activity was determined according to the method described by Ochi et al., J. Biol. Chem.,258, p. 5754, 1983 using a crude enzyme fraction prepared from peritoneal exudated cells of guinea pigs which were induced by intraperitoneal injection of 2% case in solution. A solution of a test drug was mixed with a reaction solution (2mM ATP, 1 mM glutathione,and the enzyme fraction in 50 mM phosphate buffer, PH 7.4) and the mixture was pre-incubated at 37° C. for 5 minutes. Calcium chloride (1 mM) and 20 μM^14 C-arachidonic acid were added to the mixture, and then the mixture was subjected to a reaction at 37° C. for 10 minutes. After the completion of the reaction, the product was immediately extracted, dissolved in chloroform/methanol (2:1), and developed by thin-layer chromatography. Radioactivity of the 5-hydroxyeicosatetraenoic acid (5-HETE) fraction was measured using a liquid scintillation counter. Inhibitory rate of each drug-treated group against 5-HETE generation was obtained in comparison with the solvent-treated control, and IC50 was calculated according to the probit method.

Data set [3] has as its system auricle edema induced by arachidonic acid. Description: Inhibitory activity on auricle edema induced by arachidonic acid. Format: in vivo, ddY mice. The settings on record: mouse, oral, 1 hour after arachidonic acid. The method, then: EXPERIMENT 5: INHIBITORY ACTIVITY ON AURICLE EDEMA INDUCED BY ARACHIDONIC ACID
[…]. Dermatol. 82, p. 367, 1984. The mice were orally administered with a test drug suspended in 0 5% CMC-Na, and after one hour, 10 μl of arachidonic acid in acetone (50 mg/ml) were applied to front and back surfaces of the left auricles of each mouse. One hours later, the thicknesses of the left and right auricles were measured by means of a dial gauge, and the rate of edema of the left auricle was calculated in comparison with the right auricle (normal). Inhibitory rate of each drug-treated group against edema formation was calculated in comparison with the solvent-treated control.

Another data set has as its system ddY mice. In words: Acute toxicity. Format: in vivo. Particulars: mouse, oral, 600 mg/kg, observed for 2 weeks. An excerpt: EXPERIMENT 9: ACUTE TOXICITY
The next data set deals with granuloma formation. Description: Inhibitory activity on granuloma formation (proliferative inflammation). Format: in vivo, Wistar rats. Particulars: rat, oral, 10 mg/kg every day for 8 days. The protocol: EXPERIMENT 7: INHIBITORY ACTIVITY ON GRANULOMA FORMATION (PROLIFERATIVE INFLAMMATION)
Evaluation was carried out by using Wistar rats (120-140 g) according to the method described by Fujiyoshi et al., Nihon Yakurigaku Zasshi (Folia Pharmacologica Japonica), 87, p. 379, 1986. Back skin of the rat was lightly incised under anesthesia with pentobarbital, and filter paper discs for antibiotic assay (57 mg, 13.0.phi., Whatman) sterilized by autoclave were embedded under the skin at the both axillae. 0.1 ml of a mixture of streptomycin and penicillin G (each 1 mg/ml) was administered dropwise to the incised site and the incised skin was sutured. From the day of the disc embedment, a test drug suspended in 0.5% CMC--Na was orally administered to the rat every day for 8 days. The rat was sacrificed at the day of last administration and granuloma including the filter paper was extirpated from the circumferential tissue and dried at 110° C. overnight. The dry weight of the granuloma was measured and inhibitory rate of each drug-treated group against granulation formation was calculated in comparison with the solvent-treated control.

Data set [4] concerns auricle edema induced by oxazolone. Description: Effect on auricle edema induced by oxazolone (delayed allergy). Format: in vivo, ICR mice. Particulars: mouse, oral, 10 mg/kg × 2 (30 minutes before, 6 hours after), 24 hours. The method, then: EXPERIMENT 6: EFFECT ON AURICLE EDEMA INDUCED BY OXAZOLONE (DELAYED ALLERGY)
[…]. The mice were sensitized by the application of 0.1 ml of 0.5% oxazolone in ethanol to shaven abdominal skin. Five days later, inflammation was induced by applying 10 μl of 0.5% oxazolone in acetone to front and back surfaces Of the right auricle. After 24 hours, the thicknesses of the left and right auricles were measured by a dial gauge, and the rate of edema of the right auricle was calculated in comparison with the left auricle (normal). A test drug was suspended in 0.5% CMC--Na and orally administered twice to each mouse , i.e., 30 minutes before and 6 hours after the inflammation-inducing treatment. Inhibitory rate of each drug-treated group against edema was calculated in comparison with the solvent-treated control.

Take `CCOc1ccc(-c2cc(-c3ccc(CC)n3CC(=O)O)oc2-c2ccc(OCC)cc2)cc1` [Compound 217]: the IC50 (usually the concentration needed to halve the response being measured) in data set [1] stood at 2440 nM.

Consider `CC(C)c1cc(-c2cc(-c3ccccc3)c(-c3ccccc3)o2)n(CC(=O)O)c1` [Compound 117], for which, in data set [1], the half-maximal inhibitory concentration (IC50) turned out to be 4830 nM. The “Inhibition on Edema (%)” value in data set [2] is given as 50.9%.

`CCc1cc(-c2cc(-c3ccc(OC)cc3)c(-c3ccc(OC)cc3)o2)n(CC(=O)O)c1` [Compound 185]: the 50% inhibitory concentration (IC50) is 2200 nM in data set [1], 95 nM against cyclooxygenase and 1000 nM at 5-lipoxygenase.

For the compound `CCCc1ccc(-c2cc(-c3ccc(OC)cc3)c(-c3ccc(OC)cc3)o2)n1CC(=O)O` [Compound 195], the “Inhibition on Edema (%)” value in data set [3] (30 mg/kg) was 43.9%. The 50% inhibitory concentration (IC50) at 5-lipoxygenase worked out at 910 nM.

For the compound `COc1ccc(-c2cc(-c3ccc(C)n3CC(=O)O)oc2-c2ccc(OC)cc2)cc1` [Compound 192], in the data set on ddY mice, the “Dead Mice/Total Mice” value is 0/5. Further, the IC50 was found to be 57 nM against cyclooxygenase and 910 nM on 5-lipoxygenase. Moreover, in data set [2], the “Inhibition on Edema (%)” value is 38.4%.

With `COc1ccc(-c2cc(-c3cccn3CC(=O)O)oc2-c2ccc(OC)cc2)cc1` [Compound 175], the results for the IC50 (in data set [1]; at cyclooxygenase) were 3630 nM and 69 nM, respectively. Moreover, the “Dead Mice/Total Mice” value in the data set on ddY mice is listed as 1/5. Also, in the data set with granuloma formation, the “Inhibition on Granuloma (%)” value is given as 32.2%. In addition, the entries for the “Inhibition on Edema (%)” value in data set [3] (30 mg/kg), in data set [2] and in data set [4] were 50.6%, 44.1% and 52.1%, respectively.

`COc1ccc(-c2cc(-c3cccn3CCC(=O)O)oc2-c2ccc(OC)cc2)cc1` [Compound 178] yielded an IC50 in data set [1] of 3240 nM.

As to `COc1ccc(-c2cc(-c3cccn3C(C)C(=O)O)oc2-c2ccc(OC)cc2)cc1` (stereo not drawn) [Compound 176], the IC50 in data set [1] was 4490 nM; against cyclooxygenase it was 111 nM. Moreover, the “Inhibition on Granuloma (%)” value in the data set with granuloma formation is reported as 32.4%. Further, the “Inhibition on Edema (%)” value in data set [3] (30 mg/kg) was 30.6%; in data set [4], 56.4%.

With `COc1ccc(-c2oc(-c3cccn3CC(=O)O)cc2-c2ccccc2)cc1` [Compound 150], the IC50 against cyclooxygenase came to 82 nM.

As for `COc1ccc(-c2cc(-c3cc(C(C)C)cn3CC(=O)O)oc2-c2ccccc2)cc1` [Compound 142], the “Inhibition on Edema (%)” value came out at 45.4% in data set [2] and 62.2% in data set [4].

With `COc1ccc(-c2oc(-c3cccn3CC(=O)O)c(C)c2-c2ccc(OC)cc2)cc1` [Compound 184], the IC50 in data set [1] came to 3130 nM; against cyclooxygenase, 75 nM.

For the compound `CCc1ccc(-c2cc(-c3ccc(OC)cc3)c(-c3ccc(C)cc3)o2)n1CC(=O)O` [Compound 165], the IC50 in data set [1] amounted to 2730 nM. That is a single-digit micromolar value.

Consider `CC(C)Cc1ccc(C(C)C(=O)O)cc1` (stereo not drawn) [Ibuprofen, reference compound], for which the “Inhibition on Edema (%)” value in data set [3] (100 mg/kg) worked out at 0%.

`O=C(O)Cn1cccc1-c1cc(-c2ccccc2)c(-c2ccccc2)o1` [Compound 114]: the “Inhibition on Edema (%)” value in data set [3] (30 mg/kg) worked out at 41.9%.
